Data on ten compounds can be found in patent US5602134A, “Positive inotropic and lusitropic pyrroloquinolinone derivatives” (Janssen Pharmaceutica N.V., priority 1993, dated 1997).

Structures are written as SMILES. Where a name gives a salt, the structure may show the parent alone. Read-outs that look alike come from different tables or passages of the source.

Experiment [1] concerns the target T1, canine heart phosphodiesterase PDE III (Canis lupus familiaris, UniProt A0A8I3NYE0).
T1 construct: canine heart phosphodiesterase PDE III; from tissue; host or cells: canine heart
T1 sequence (A0A8I3NYE0 1-1135): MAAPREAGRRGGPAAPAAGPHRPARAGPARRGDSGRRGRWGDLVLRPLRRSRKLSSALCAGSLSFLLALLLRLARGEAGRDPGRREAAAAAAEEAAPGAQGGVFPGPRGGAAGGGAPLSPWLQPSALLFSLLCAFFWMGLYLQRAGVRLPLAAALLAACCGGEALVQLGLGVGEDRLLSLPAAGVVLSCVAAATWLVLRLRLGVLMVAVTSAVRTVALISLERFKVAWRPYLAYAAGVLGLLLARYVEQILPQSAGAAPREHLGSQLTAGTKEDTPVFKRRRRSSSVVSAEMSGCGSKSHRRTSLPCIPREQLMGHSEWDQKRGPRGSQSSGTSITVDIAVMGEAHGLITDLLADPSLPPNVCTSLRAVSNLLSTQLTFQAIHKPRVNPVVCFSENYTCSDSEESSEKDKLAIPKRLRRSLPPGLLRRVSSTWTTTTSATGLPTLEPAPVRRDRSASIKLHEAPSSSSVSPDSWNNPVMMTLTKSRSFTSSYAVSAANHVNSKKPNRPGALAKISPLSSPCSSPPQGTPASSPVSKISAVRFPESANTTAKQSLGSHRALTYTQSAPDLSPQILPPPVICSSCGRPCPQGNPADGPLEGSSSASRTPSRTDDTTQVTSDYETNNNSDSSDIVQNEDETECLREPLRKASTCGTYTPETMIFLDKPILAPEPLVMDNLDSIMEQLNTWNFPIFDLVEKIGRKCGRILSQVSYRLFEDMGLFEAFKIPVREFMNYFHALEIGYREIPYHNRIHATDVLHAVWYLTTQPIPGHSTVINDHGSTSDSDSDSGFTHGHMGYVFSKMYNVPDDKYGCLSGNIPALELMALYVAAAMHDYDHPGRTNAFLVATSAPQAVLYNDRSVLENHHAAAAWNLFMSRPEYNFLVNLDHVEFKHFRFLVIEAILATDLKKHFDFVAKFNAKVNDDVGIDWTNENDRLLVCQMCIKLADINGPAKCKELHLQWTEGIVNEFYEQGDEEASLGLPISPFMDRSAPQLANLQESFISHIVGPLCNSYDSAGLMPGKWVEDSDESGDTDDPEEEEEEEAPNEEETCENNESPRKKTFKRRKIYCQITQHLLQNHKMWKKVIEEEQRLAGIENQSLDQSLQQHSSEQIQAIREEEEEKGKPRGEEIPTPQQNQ
In words: Inhibition of Phosphodiesterase Type III (PDE III). The class given is biochemical. The settings on record: 10 min at 37° C., pH 7.1. Here is the method:
The positive inotropic and lusitropic effect of the instant compounds was assessed by an in vitro assay system to detect inhibiting effect on the phosphodiesterase type III and in an in vivo experiment in closed-chest anesthetized dogs by monitoring cardiac and haemodynamic effects of an intravenous bolus injection of the instant compounds. […] Inhibition of Phosphodiesterase Type III (PDE III) […] For every preparation,time- and concentration-dependent changes in cyclic nucleotide hydrolysis were measured. […] The enzymatic activity was started by addition of substrate and stopped 10 min later after the tubes were transferred to a waterbath at 100° C. for 40 sec. After the tubes had been cooled to room temperature, alkaline phosphatase (0.25 g/ml) was added and the mixture was left at 37° C. for 20 min. The mixture was subsequently applied to a 1-ml DEAE-Sephadex A-25 column and washed twice with 3 ml of 20 mM Tris-HCl at pH 7.4. The ^3 H-labeled reaction products in the eluate were quantified by liquid scintillation counting. The inhibiting effect of the present compounds on canine heart phosphodiesterase PDE III was measured at different concentrations of the instant compounds. The IC50 values were calculated graphically from the thus obtained inhibition values.

A further experiment relates to Beagle dogs. Put plainly: Positive inotropy and lusitropy, blood pressure and heart rate in anaesthetized closed-chest dogs. It is filed as in vivo, Beagle dog. The settings on record: Canis lupus familiaris, iv, 5 min, 5 min after i.v. administration, n = 3, relative to premedication values. Here is the method:
The positive inotropic and lusitropic effect of the instant compounds was assessed by an in vitro assay system to detect inhibiting effect on the phosphodiesterase type III and in an in vivo experiment in closed-chest anesthetized dogs by monitoring cardiac and haemodynamic effects of an intravenous bolus injection of the instant compounds.
Positive Inotropy and Lusitropy, Blood Pressure and Heart Rate in Dogs
The test compound was dissolved in an aqueous glucose solution in a concentration of 1 mg.ml^-1. The experiments were performed on 3 Beagle dogs of either sex and varying age, ranging in body weight from 11 to 18 kg (median 13 kg). The animals were intravenously anaesthetized with a mixture of 0.015 mg.kg^-1 scopolamine and 0.05 mg.kg^-1 lofentanil. The animals were intubated with a cuffed endotracheal tube. Intermittent positive pressure ventilation was performed with a mixture of pressurized air and oxygen (60/40), using a volume-controlled ventilator (Siemens Elema). In the control period the CO2 concentration in the expired air (ET CO2), as determined with a capnograph (Gould Godart), was kept at 5 vol % by adjustment of the respiratory volume (resp. rate=20 breaths.min^-1). A continuous intravenous infusion of 0.5 mg.kg^-1.h^-1 of etomidate was started immediately after induction. Body temperature was monitored with a thermistor positioned in the pulmonary artery. To prevent blood clotting heparin, 1000 IU.kg^-1i.v., was administered.
The electrocardiogram (ECG) was derived from limb leads (standard lead 2). Left ventricular (LVP) and ascending aortic blood pressure (AoP) were measured by retrograde catheterisation via the femoral arteries with high fidelity cathetertip micromanometers (Honeywell). The other femoral vein was cannulated for injection of saline at room temperature into the right atrium and for injection of the test compound. Peak ascending aortic blood flow velocity was measured through the fight carotid artery with an electomagnetic catheter-tip probe connected to a square wave electomagnetic flow meter (Janssen Scientific Instruments). The following variables--inter alia--were calculated on-line, usually at 1 rain intervals: heart rate (HR), diastolic (AoPd) aortic blood pressure, left ventricular end-diastolic pressure (LVEDP), the maximum positive and maximum negative rate of change of isovolumic LVP (LV dp/dtmax and min, respectively), the maximum positive first derivative divided by the actually developed pressure in the left ventricle (LV dp/dtmax /Pd). The time constant (T) of relaxation was measured with the use of an exponential analysis that also estimated the asymptote. After a stabilization period, the animals were treated by intravenous bolus injection of the test compound at 30 min. interval in cumulative doses of 0.0005, 0.001, 0.004, 0.016, 0.064, 0.125 and 0.25 mg/kg.

The mark [2] stands for this setting: read-out: Calculated dose producing a 15% reduction in diastolic aortic blood pressure (AoPD).
Setting [3] is: read-out: Calculated dose producing a 15% reduction of total systemic vascular resistance (TSR).
The mark [4] stands for this setting: read-out: Calculated dose producing a 30% increase in cardiac contractility (LV dp/dt max).
The mark [5] stands for this setting: read-out: Calculated dose producing a 30% increase in heart rate (HR).

`O=C1Cc2cc3cc(OCCCCC(=O)N4CCN(CC5CCCCC5)CC4)ccc3nc2N1` [Compound 6]: the midpoint of inhibition in experiment [1], the IC50, lay at 2.4 nM.
The same measure, in the same setting: for `CN(C(=O)CCCOc1ccc2nc3c(cc2c1)CC(=O)N3)C1CCCCC1` [Compound 17, N-cyclohexyl-4-[(2,3-dihydro-2-oxo-1H-pyrrolo[2,3-b]quinolin-6-yl)oxy]-N-methylbutanamide hemihydrate] the value was 7.6 nM; for `CCOC(=O)CCCOc1ccc2nc3c(cc2c1)CC(=O)N3` [Compound 1, ethyl 4-[(2,3-dihydro-2-oxo-1H-pyrrolo[2,3-b]quinolin-6-yl]oxy]butanoate], 290 nM.
As to `O=C1Cc2cc3cc(OCCCC(=O)N4CCN(CC5CCCCC5)CC4)ccc3nc2N1` [Compound 5, 1-(cyclohexylmethyl)-4-[4-[(2,3-dihydro-2-oxo-1H-pyrrolo[2,3-b]quinolin-6-yl)oxy]-1-oxobutyl]piperazine], the ED15 in the experiment with Beagle dogs (setting [2]) was more than 0.25 mg/kg; in the experiment with Beagle dogs (setting [3]), 0.079 mg/kg. For the same compound, the figures for the ED30 in the experiment with Beagle dogs (setting [4]) and in the experiment with Beagle dogs (setting [5]) were 0.008 mg/kg and 0.033 mg/kg, respectively. Besides, inhibition in experiment [1] was half-maximal at 18 nM (IC50).
As to `O=C1Cc2cc3cc(OCCCC(=O)N4CCN(CC5CCCCC5)CC4)ccc3nc2N1` [Compound 16, 1-(cyclohexylmethyl)-4-[4-[(2,3-dihydro-2-oxo-1H-pyrrolo[2,3-b]quinolin-6-yl)oxy]-1-oxobutyl]piperazine dihydrochloride ethanolate(1:1)], inhibition in experiment [1] was half-maximal at 27 nM (IC50).
With `CN1CCC(N(C)C(=O)CCCOc2ccc3nc4c(cc3c2)CC(=O)N4)CC1` [Compound 8, 4-[(2,3-dihydro-2-oxo-1H-pyrrolo[2,3-b]quinolin-6-yl)oxy]-N-methyl-N-(1-methyl-4-piperidinyl)butanamide], the IC50 (in general, the concentration that inhibits the measured activity by half) in experiment [1] was 300 nM.
Consider `Cl.O=C1Cc2cc3cc(OCCCCC(=O)N4CCN(CC5CCCCC5)CC4)ccc3nc2N1` [Compound 15, 1-(cyclohexylmethyl)-4-[5-[(2,3-dihydro-2-oxo-1H-pyrrolo[2,3-b]-quinolin-6-yl)oxy]-1-oxopentyl]piperazine monohydrochloride], for which the values for the ED15 in the experiment with Beagle dogs (setting [2]) and in the experiment with Beagle dogs (setting [3]) were 0.015 mg/kg and 0.003 mg/kg, respectively. The results for the ED30 in the experiment with Beagle dogs (setting [4]) and in the experiment on Beagle dogs (setting [5]) were 0.002 mg/kg and 0.028 mg/kg, respectively. Besides, the midpoint of inhibition in experiment [1], the IC50, lay at 1.8 nM.
For the compound `O=C(O)CCCOc1ccc2nc3c(cc2c1)CC(=O)N3` [Compound 3, 4-[(2,3-dihydro-2-oxo-1H-pyrrolo[2,3-b]quinolin-6-yl)oxy]butanoic acid], the IC50 in experiment [1] is 330 nM.
Regarding `O=C1Cc2cc3cc(OCCCCC(=O)NC4CCN(Cc5ccccc5)CC4)ccc3nc2N1` [Compound 7], in experiment [1], the midpoint of inhibition, the IC50, lay at 58 nM.
Same read-out and setting: with `CCOC(=O)CCCCOc1ccc2nc3c(cc2c1)CC(=O)N3` [Compound 2, ethyl 5-[(2,3-dihydro-2-oxo-1H-pyrrolo[2,3-b]quinolin-6-yl]oxy]pentanoate] the figure was 62 nM.
